Assay [1] concerns the target BuChE (from equine serum) (Equus caballus, UniProt P81908). In words: BuChE inhibitory activity, Ellman's method with slight modification. Type of assay: biochemical.
For assay [2], the target named is AChE (from Electrophorus electricus) (Electrophorus electricus, UniProt O42275). In words: biochemical. Type of assay: biochemical.

This is an account of results in publication PMC9034021 (RSC Advances, 2021).

AChE (from Electrophorus electricus), sequence (O42275 24-633): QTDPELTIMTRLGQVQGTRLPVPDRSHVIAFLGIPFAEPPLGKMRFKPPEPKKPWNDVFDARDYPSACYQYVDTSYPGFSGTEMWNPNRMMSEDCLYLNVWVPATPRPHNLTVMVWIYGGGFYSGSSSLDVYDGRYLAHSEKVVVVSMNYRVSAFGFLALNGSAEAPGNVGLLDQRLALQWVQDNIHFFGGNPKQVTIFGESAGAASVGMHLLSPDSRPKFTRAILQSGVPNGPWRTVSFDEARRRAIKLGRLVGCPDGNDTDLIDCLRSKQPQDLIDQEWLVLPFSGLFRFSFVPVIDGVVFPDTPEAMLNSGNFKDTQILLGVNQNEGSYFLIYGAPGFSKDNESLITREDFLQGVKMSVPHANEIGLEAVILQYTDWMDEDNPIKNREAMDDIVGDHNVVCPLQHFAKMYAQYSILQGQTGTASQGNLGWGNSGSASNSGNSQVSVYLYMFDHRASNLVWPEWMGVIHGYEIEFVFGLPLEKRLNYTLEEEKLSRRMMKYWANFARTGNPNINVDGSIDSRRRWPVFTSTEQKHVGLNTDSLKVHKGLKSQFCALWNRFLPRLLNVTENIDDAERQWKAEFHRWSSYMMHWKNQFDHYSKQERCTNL
BuChE (from equine serum), sequence (P81908 whole entry): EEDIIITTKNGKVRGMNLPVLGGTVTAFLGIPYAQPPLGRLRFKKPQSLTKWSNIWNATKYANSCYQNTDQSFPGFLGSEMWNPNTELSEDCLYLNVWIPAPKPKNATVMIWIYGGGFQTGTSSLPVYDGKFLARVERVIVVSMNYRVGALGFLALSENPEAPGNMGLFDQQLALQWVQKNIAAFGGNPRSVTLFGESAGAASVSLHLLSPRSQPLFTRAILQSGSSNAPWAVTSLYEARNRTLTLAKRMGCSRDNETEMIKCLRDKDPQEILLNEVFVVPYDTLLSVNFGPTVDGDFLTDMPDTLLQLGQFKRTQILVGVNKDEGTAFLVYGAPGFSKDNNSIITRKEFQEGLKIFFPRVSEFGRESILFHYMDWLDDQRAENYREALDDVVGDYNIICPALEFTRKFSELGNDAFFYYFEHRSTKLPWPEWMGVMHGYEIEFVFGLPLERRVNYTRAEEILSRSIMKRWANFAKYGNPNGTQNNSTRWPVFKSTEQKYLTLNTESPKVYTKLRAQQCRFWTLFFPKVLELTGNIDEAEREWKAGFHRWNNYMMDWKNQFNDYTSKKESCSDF

`COc1cc2c(cc1O)[C@@H]1Cc3ccc(O)c(OC)c3CN1CC2` [Compound 12, stepholidine]: in assay [1], half-maximal inhibition (IC50) required 221.2 ± 1.62 µM.
The same measure, in the same setting: the value for `COc1cc2c(cc1OC)[C@@H]1Cc3ccc(OC)c(OC)c3CN1CC2` [Compound 14, tetrahydropalmatine] was 65.3 ± 0.8 µM.
As to `COc1cc2c(cc1O)CC[n+]1cc3c(OC)c(OC)ccc3cc1-2` [Compound 18, jatrorrhizine], the results for the IC50 in assay [1] and in assay [2] were 31.46 ± 0.2 µM and 12.3 ± 0.44 µM, respectively.
`CN1CCc2cc3c(c4c2C1Cc1ccccc1-4)OCO3` (stereo not shown) [Compound 22, roemerine]: the “BuChE inhibition, fold more active than galanthamine” value in assay [1] is “approximately 1.3 fold”. The concentration for half-maximal inhibition (IC50) (usually the concentration that inhibits the measured activity by half) in assay [1] was found to be 2.85 ± 0.08 µM; in assay [2], 8.32 ± 0.12 µM.
Turning to `COc1ccc2c(c1OC)CC1c3c(cc4c(c3-2)OCO4)CCN1C` (stereo not shown) [Compound 25, crebanine], in assay [1], it took 10.5 ± 0.27 µM to reach half-maximal inhibition (IC50) and the “anti-BuChE activity, fold higher than that of 26” value stood at 2.5 fold. Further, in assay [2], half-maximal inhibition (IC50) required 17.4 ± 0.22 µM and the “anti-AChE activity, fold less active than the 9,10-dimethoxy analogue 26” value is given as 2.8 fold.
Take `COc1cc2c(cc1OC)-c1c3c(cc4ccnc(c14)C2=O)OCO3` [Compound 35, dicentrinone]: the IC50 in assay [2] is 265.8 ± 0.8 µM.
Regarding `COc1cc2cc3c4c(cc5c(c4c2cc1OC)OCO5)CCN3C` [Compound 42, dehydrodicentrine], the “anti-BuChE activity, fold increase of the dehydroaporphine” value in assay [1] (relative to the aporphine group, comparator not named) was 4.7 fold.
Turning to `COc1cc2c(cc1O)C(Cc1ccc(O)cc1)NCC2` (stereo not shown) [Compound 44, coclaurine], the IC50 in assay [1] turned out to be 20.5 ± 0.42 µM; in assay [2] it was 40.9 ± 0.67 µM.
In turn, `COC1=C[C@]23CCN(C)[C@H](Cc4ccc(OC)c(O)c42)C3=CC1=O` [Compound 45, salutaridine] registered an IC50 in assay [2] of 7.49 ± 0.66 µM.
